From patent publication US20240374535A1, “COMPOSITIONS AND METHODS FOR TREATING BIOFILM DISORDERS AND INFECTIONS” (AHV International B.V., priority 2021, published 2024)

Assays:
[1] = tested on: Pseudomonas aeruginosa ATCC 27853 biofilm; test: MBEC assay (biofilm eradication, CFU log reduction); type: cell-based, P. aeruginosa; details: 48 h grown biofilm, 20 h treatment, CFU log reduction vs untreated
Procedure, shortened: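 Biofilms were grown 48 h static at 37 °C in TSB from inocula at OD600 0.2, then treated 20 h at 37 °C with 1, 0.5, 0.25 or 0.125 mM compound in saline (Tween 80 and DMSO each 0.63–0.08%), four replicates per condition. Resuspended biofilm was serially diluted and plated on TSA for 24 h; log CFU reduction versus untreated, with ≥1 counted as significant, in two independent experiments.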

[2] = tested on: Staphylococcus epidermis ATCC 35984 biofilm; test: MBIC assay (biofilm inhibition, crystal violet); type: cell-based, S. epidermidis; details: 48 h incubation, absorbance 540 nm
Procedure: (§1) The exact weighed amount was noted and the volume of solvent to reach a 80 mM dilution calculated. Half of the volume was added first, by adding Tween 80. In a second step, the other half of the volume DMSO was added and the closed tube inverted 5-10 times and then vortexed very thoroughly for at least 30 seconds. If after this procedure unsolved material was still visible, the tube was placed in a shaker at 37° C. at 150 rpm for at least 30 minutes. […] For the MBEC assay (method 1.3) the solution needs to be diluted to a final concentration of 2 mM in 0.9% saline solution and then further diluted to 1 mM, 0.5 mM, 0.25 mM and 0.125 mM in saline. Those dilutions were added as treatment to the 96 well plates with the grown biofilm (see method 3).
(§2) Frozen aliquots of Staphylococcus epidermis ATCC 35984 and Pseudomonas aeruginosa ATCC 27853 were used to inoculate a tryptic soy agar (TSA) plate and were incubated overnight at 37° C. After incubation 3-5 well-isolated colonies with the same morphology were selected from the TSA plate and resuspended in 2 mL 0.9% saline solution with 3-6 glass beads and vortexed. The optical density of the bacterial suspension was measured at 600 nm (OD600) with a spectrophotometer (Evolution™ 201/220 UV-Visible Spectrophotometer, Thermo Fisher Scientific) and diluted to an OD600 of 0.2. The MBIC assay was performed in a 96-microtiter plate. 50 μL of TSB was added into columns 2-11, and 100 μL to column 12 for sterility control. 100 μL of the 8 mM test compound solution (method 1) was added to column 1. A two-fold dilution series of the solution in TSB was achieved by resuspending 50 μL of the 8 mM solution from column 1 in column 2. This step was repeated until column 10. The respective concentration of Tween 80 and DMSO in column 1 is at 2.5%, which is two-fold diluted throughout the plate. 50 μL of the bacterial suspension was added to column 1-11. The microtiter plates were sealed with adhesive polyethylene film for sealing microplates (Diversified Biotech) and incubated for 48 h at 37° C. After incubation the supernatant is carefully removed and the well with the biofilm washed for one time with 100 μL 0.9% saline solution. 100 μL 0.1 M HCl was added and incubated for 1 h at room temperature to fix the biofilm. After incubation the HCl was removed and 100 μL crystal violet (0.1% v/v in water) was added and incubated for 30 min at room temperature. The unbound crystal violet was removed and the wells washed one time with 100 μL demineralized water. 100 μL 30% acetic acid was added and incubated for 1 h at 37° C. and 150 rpm. The solution was resuspended and transferred to a flat-bottom 96-well plate and the absorbance measured at 540 nm with the spectrophotometer. This assay was repeated two times in two independent experiments.

[3] = tested on: Pseudomonas aeruginosa ATCC 27853 biofilm; test: MBIC assay (biofilm inhibition, crystal violet); type: cell-based, P. aeruginosa; details: 48 h incubation, absorbance 540 nm
Procedure: as §1, §2

udder cleft wound = test: In vivo udder cleft dermatitis test: wound assessment after spray treatment; set-up: species or system cow; details: for inflammation of the udder cleft wound after treatment: immediately after the treatment, later infection reduced and wound healed; for Conclusion (effect on udder cleft wound): over 60 days, all cows of the group

| Structure (SMILES) | P. aeruginosa MBEC mM with log reduction ≥1 [1] [mM] | S. epidermidis MBIC90 [2] [mM] | P. aeruginosa MBIC90 [3] [mM] | inflammation of the udder cleft wound after treatment (udder cleft wound) | Conclusion (effect on udder cleft wound) (udder cleft wound) | minimal effective concentration ([1]; Pseudomonas aeruginosa, ATCC27853, read-out: P. aeruginosa MBEC mM with log reduction ≥1) [mM] |
| --- | --- | --- | --- | --- | --- | --- |
| CSS(C)(=O)=O [Di-methyl thiosulfonate, methyl methane thiosulfonate] | 2 | >4 | 4 | fast inflammation reduction | Positive effect | – |
| CCCS[S+]([O-])CCC (stereo not shown) [Di-n-propyl thiosulfinate, S-propyl propane-1-sulfinothioate] | – | >4 | 2 | fast inflammation reduction | Positive effect | 4 |
